From PubChem BioAssay (NCI)
Values joined by “and” are separate entries in the source; they are usually repeats but may differ in a detail not shown here. Equal entries are not always repeated.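 Protocol summary: plate cells (96-well), add compound at 5 concentrations, incubate 48 h, interpolate endpoints linearly. Here, GI50 denotes the concentration required for 50% inhibition of growth. The concentration for full growth arrest is given as TGI.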

Tests used:
Assay in all cases: growth of human tumour cells (NCI), 48 h
786-0 renal = test system: 786-0 renal
HT29 colon = test system: HT29 colon
KM12 colon = test system: KM12 colon
LOX IMVI melanoma = test system: LOX IMVI melanoma
MALME-3M melanoma = test system: MALME-3M melanoma
NCI-H460 lung = test system: NCI-H460 lung
NCI/ADR-RES ovarian = test system: NCI/ADR-RES ovarian
SF-539 CNS = test system: SF-539 CNS
SK-MEL-28 melanoma = test system: SK-MEL-28 melanoma
SNB-19 CNS = test system: SNB-19 CNS

Work on `CN1CCN(C(=O)OCc2nc3c(N4CCOCC4)nc(-c4ccccc4)nc3n2C)CC1` yielded a GI50 (786-0 renal) of 0.993 µM, a TGI (786-0 renal) of 2.36 µM and a GI50 (HT29 colon) of 0.512 µM. The TGI (HT29 colon) was 2.24 µM, the GI50 (KM12 colon) was 1.55 µM and the TGI (KM12 colon) was 3.53 µM. The GI50 (LOX IMVI melanoma) was 0.176 µM, the TGI (LOX IMVI melanoma) was 0.443 µM and the GI50 (MALME-3M melanoma) was 1.44 µM. The TGI (MALME-3M melanoma) was 2.8 µM, the GI50 (NCI-H460 lung) was 1.48 µM and the TGI (NCI-H460 lung) was 3.06 µM. For the same compound, the GI50 (NCI/ADR-RES ovarian) was 1.82 µM, the TGI (NCI/ADR-RES ovarian) was 6.03 µM and the GI50 (SF-539 CNS) was 1.33 µM. The TGI (SF-539 CNS) was 2.6 µM, the GI50 (SK-MEL-28 melanoma) was 1.48 µM and the TGI (SK-MEL-28 melanoma) was 2.81 µM. For the same compound, the GI50 (SNB-19 CNS) was 1.45 µM and the TGI (SNB-19 CNS) was 2.78 µM.

For `Nc1ncnc2occ(-c3ccc(NC(=O)Nc4cc(C(F)(F)F)ccc4F)cc3)c12`, the GI50 (786-0 renal) was 6.63 µM and 4.43 µM, the TGI (786-0 renal) was 16.4 µM and 10.3 µM and the GI50 (HT29 colon) was 4.42 µM and 2.64 µM. For the same compound, the TGI (HT29 colon) was 11.6 µM and 7.03 µM, the GI50 (KM12 colon) was 0.133 µM and 0.115 µM and the TGI (KM12 colon) was 4.81 µM and 3.08 µM. The GI50 (LOX IMVI melanoma) was 4.83 µM and 2.69 µM, the TGI (LOX IMVI melanoma) was 14.9 µM and 10.2 µM and the GI50 (MALME-3M melanoma) was 7.15 µM and 4.35 µM. The TGI (MALME-3M melanoma) was 17.6 µM and 12 µM, the GI50 (NCI-H460 lung) was 4.86 µM and 2.96 µM and the TGI (NCI-H460 lung) was 11.2 µM and 6.94 µM. For the same compound, the GI50 (NCI/ADR-RES ovarian) was 5.44 µM and 3.09 µM, the TGI (NCI/ADR-RES ovarian) was 20.2 µM and 13.3 µM and the GI50 (SF-539 CNS) was 2.78 µM and 1.09 µM. The TGI (SF-539 CNS) was 8.79 µM and 6.45 µM, the GI50 (SK-MEL-28 melanoma) was 5.73 µM and 4.57 µM and the TGI (SK-MEL-28 melanoma) was 14.3 µM and 11.5 µM. For the same compound, the GI50 (SNB-19 CNS) was 8.29 µM and 5.71 µM and the TGI (SNB-19 CNS) was 23.3 µM and 19.5 µM.

`Cc1cc(S(=O)(=O)Nc2n[nH]c(-c3ccc(Cl)cc3)c2C#N)c(S)cc1Cl` was tested, and the GI50 (786-0 renal) was > 100 µM, the TGI (786-0 renal) was > 100 µM and the GI50 (HT29 colon) was > 100 µM. For the same compound, the TGI (HT29 colon) was > 100 µM, the GI50 (KM12 colon) was > 100 µM and the TGI (KM12 colon) was > 100 µM. For the same compound, the GI50 (LOX IMVI melanoma) was > 100 µM, the TGI (LOX IMVI melanoma) was > 100 µM and the GI50 (MALME-3M melanoma) was > 100 µM. The TGI (MALME-3M melanoma) was > 100 µM, the GI50 (NCI-H460 lung) was > 100 µM and the TGI (NCI-H460 lung) was > 100 µM. For the same compound, the GI50 (NCI/ADR-RES ovarian) was > 100 µM, the TGI (NCI/ADR-RES ovarian) was > 100 µM and the GI50 (SF-539 CNS) was > 100 µM. The TGI (SF-539 CNS) was > 100 µM, the GI50 (SK-MEL-28 melanoma) was > 100 µM and the TGI (SK-MEL-28 melanoma) was > 100 µM. For the same compound, the GI50 (SNB-19 CNS) was > 100 µM and the TGI (SNB-19 CNS) was > 100 µM.

Work on `COc1c(O)cc2c(c1CC=C(C)C)OC(=O)c1c(cc(O)c(CC=C(C)C)c1O)O2` yielded a GI50 (786-0 renal) of 4.59 µM, a TGI (786-0 renal) of 8.47 µM and a GI50 (HT29 colon) of 4.39 µM. For the same compound, the TGI (HT29 colon) was 8.7 µM, the GI50 (KM12 colon) was 4.12 µM and the TGI (KM12 colon) was 7.71 µM. It also gave a GI50 (LOX IMVI melanoma) of 3.53 µM, a TGI (LOX IMVI melanoma) of 7.68 µM and a GI50 (MALME-3M melanoma) of 4.62 µM. The TGI (MALME-3M melanoma) was 8.7 µM, the GI50 (NCI-H460 lung) was 3.69 µM and the TGI (NCI-H460 lung) was 7.29 µM. For the same compound, the GI50 (NCI/ADR-RES ovarian) was 4.03 µM, the TGI (NCI/ADR-RES ovarian) was 8.69 µM and the GI50 (SF-539 CNS) was 4.46 µM. The TGI (SF-539 CNS) was 8.52 µM, the GI50 (SK-MEL-28 melanoma) was 4.76 µM and the TGI (SK-MEL-28 melanoma) was 9.52 µM. For the same compound, the GI50 (SNB-19 CNS) was 4.5 µM and the TGI (SNB-19 CNS) was 8.51 µM.

`CN(CCNc1ccc(C(=N)N)cc1)c1ccc(C(=N)N)cc1` was tested, and the GI50 (786-0 renal) was > 100 µM, the TGI (786-0 renal) was > 100 µM and the GI50 (HT29 colon) was 80.8 µM. For the same compound, the TGI (HT29 colon) was > 100 µM, the GI50 (KM12 colon) was 38.3 µM and the TGI (KM12 colon) was > 100 µM. The GI50 (LOX IMVI melanoma) was > 100 µM, the TGI (LOX IMVI melanoma) was > 100 µM and the GI50 (MALME-3M melanoma) was 26.6 µM. For the same compound, the TGI (MALME-3M melanoma) was > 100 µM, the GI50 (NCI-H460 lung) was 4.74 µM and the TGI (NCI-H460 lung) was > 100 µM. For the same compound, the GI50 (NCI/ADR-RES ovarian) was 63.6 µM, the TGI (NCI/ADR-RES ovarian) was > 100 µM and the GI50 (SF-539 CNS) was 35.1 µM. For the same compound, the TGI (SF-539 CNS) was > 100 µM, the GI50 (SK-MEL-28 melanoma) was 36.4 µM and the TGI (SK-MEL-28 melanoma) was > 100 µM. For the same compound, the GI50 (SNB-19 CNS) was 27.8 µM and the TGI (SNB-19 CNS) was > 100 µM.

For `COc1ncnn2ccc(-c3cnc4nc(C)n(Cc5nnc(C(C)F)o5)c4c3)c12` (stereo not given), the GI50 (786-0 renal) was 0.273 µM, the TGI (786-0 renal) was > 100 µM and the GI50 (HT29 colon) was 0.253 µM. The TGI (HT29 colon) was 0.631 µM, the GI50 (KM12 colon) was 0.116 µM and the TGI (KM12 colon) was > 100 µM. The GI50 (LOX IMVI melanoma) was 0.144 µM, the TGI (LOX IMVI melanoma) was 0.619 µM and the GI50 (MALME-3M melanoma) was 0.264 µM. The TGI (MALME-3M melanoma) was 0.75 µM, the GI50 (NCI-H460 lung) was 0.242 µM and the TGI (NCI-H460 lung) was > 100 µM. The GI50 (NCI/ADR-RES ovarian) was 0.409 µM, the TGI (NCI/ADR-RES ovarian) was > 29.2 µM and the GI50 (SF-539 CNS) was 0.218 µM. For the same compound, the TGI (SF-539 CNS) was 0.674 µM, the GI50 (SK-MEL-28 melanoma) was 0.298 µM and the TGI (SK-MEL-28 melanoma) was 13.8 µM. For the same compound, the GI50 (SNB-19 CNS) was 0.198 µM and the TGI (SNB-19 CNS) was > 100 µM.

For `NNC(=S)N/N=C/c1ccccn1`, the GI50 (786-0 renal) was 1.76 µM, the TGI (786-0 renal) was > 100 µM and the GI50 (HT29 colon) was 3.54 µM. The TGI (HT29 colon) was > 100 µM, the GI50 (KM12 colon) was 2.62 µM and the TGI (KM12 colon) was > 100 µM. For the same compound, the GI50 (LOX IMVI melanoma) was 2.3 µM, the TGI (LOX IMVI melanoma) was > 100 µM and the GI50 (MALME-3M melanoma) was 5.19 µM. The TGI (MALME-3M melanoma) was > 100 µM, the GI50 (NCI-H460 lung) was 1.23 µM and the TGI (NCI-H460 lung) was 8.54 µM. The GI50 (NCI/ADR-RES ovarian) was 2.81 µM, the TGI (NCI/ADR-RES ovarian) was > 100 µM and the GI50 (SF-539 CNS) was 2.06 µM. For the same compound, the TGI (SF-539 CNS) was 9.32 µM, the GI50 (SK-MEL-28 melanoma) was 4.47 µM and the TGI (SK-MEL-28 melanoma) was > 100 µM. The GI50 (SNB-19 CNS) was 3.57 µM and the TGI (SNB-19 CNS) was > 100 µM.
